From patent US7968530B2 (priority 2005, dated 2011)
Read-outs that look alike come from different tables or passages of the source.

Legend:
Phytophthora infestans [1] = assay type: in vivo
Plasmopara viticola [2] = experiment: Preventive fungicidal activity against peronospora of vines, sprayed vine leaves (Example 7); assay type: in vivo; conditions: 7-day preventive, vine cv. Dolcetto, scale 0 (completely infected) to 100 (healthy plant); for Activity 500 ppm: 500 ppm as equivalent phosphorous acid; for Activity 1000 ppm: 1000 ppm as equivalent phosphorous acid
Description: Determination of the Fungicidal Activity Against Peronospora of Vines (Plasmopara viticola).
Vine leaves (cultivar Dolcetto), grown in vases in a conditioned environment (20±1° C., 70% relative humidity) are treated by spraying both sides of the leaves with compounds 1 and 2, dispersed in a hydroacetone solution at 20% by volume in acetone.
After remaining 24 hours in a conditioned environment, the plants were sprayed on both sides of the leaves with an aqueous suspension of conidia of Plasmopara viticola (20,000 conidia per cm^3).
The plants are kept in a humidity saturated environment at 21° C. for the incubation period of the fungus.
At the end of this period (7 days), the fungicidal activity is evaluated according to an evaluation percentage scale from 0 (completely infected plant) to 100 (healthy plant).

Plasmopara tabacina = experiment: 1-day curative fungicidal activity of fungicidal mixtures against peronospora of tobacco (Example 11); assay type: in vivo
Description: Determination of the Fungicidal Activity of Fungicidal Mixtures Against Peronospora of Tobacco (Plasmopara tabacina).
Leaves of tobacco plants (cultivar Barley), grown in vases in a conditioned environment (20±1° C.), 70% relative humidity) were infected with an aqueous solution of spores of Plasmopara tabacina (200,000 conidia per cm^3).
(§1) After remaining 24 hours in a conditioned environment, both sides of the leaves were sprayed with the fungicidal mixtures under examination dissolved in a hydroacetone solution at 20% of acetone (vol./vol.).
After drying, the plants were transferred for the incubation period of the fungus (6 days) to a conditioned environment at 70% relative humidity and 24° C.

Plasmopara viticola [3] = experiment: 1-day curative fungicidal activity of fungicidal mixtures against peronospora of vines (Example 10); assay type: in vivo
Description: Leaves of vines (cultivar Dolcetto), grown in vases in a conditioned environment (20±1° C.), 70% relative humidity) were infected with an aqueous suspension of spores of Plasmopara viticola (200,000 conidia per cm^3).
as §1
After drying, the plants were transferred for the incubation period of the fungus (6 days) to a conditioned at 70% relative humidity and 24° C.

Phytophthora infestans [4] = conditions: 1-day curative, potato Primura, scale 100 healthy to 0 infected
[5] = 1575 ppm as equivalent phosphorous acid
[6] = compound alone at 1575 ppm as equivalent phosphorous acid, 1-day curative, potato, scale 0-100

For `CN(C)CCCO` [3-dimethylamine-1-propanol], the “Activity (y)” value (Phytophthora infestans [1]; in vivo) was 25.
In the case of `C[N+](C)(C)CCO.O=C([O-])O` [Choline bicarbonate], the “Activity 500 ppm” value (Plasmopara viticola [2]) is reported as 75 and the “Activity 1000 ppm” value (Plasmopara viticola [2]) is reported as 84.
In the case of `C[N+](C)(C)CCO.[Cl-]` [Choline chloride], the “Activity (y)” value (Plasmopara tabacina; compound alone at 2047 ppm, 1-day curative, tobacco, scale 0-100) is reported as 10, the “Activity (y)” value (Plasmopara viticola [3]; compound alone at 2047 ppm, 1-day curative, vine, scale 0-100) is reported as 20 and the “Activity (y)” value (Phytophthora infestans [1]; compound alone at 2730 ppm, 1-day curative, potato, scale 0-100) is reported as 20. The “Activity 500 ppm” value (Plasmopara viticola [2]) was 35, the “Activity 1000 ppm” value (Plasmopara viticola [2]) was 57 and the Activity (Phytophthora infestans [4]; 2690 ppm (quantity of choline contained in Compound No 2)) was 15 (2690 ppm*).
For `O=[PH]([O-])[O-].[K+].[K+]` [Compound K2HPO3, K2HPO3, reference compound], the “Activity 500 ppm” value (Plasmopara viticola [2]) was 45, the “Activity 1000 ppm” value (Plasmopara viticola [2]) was 80 and the Activity (Phytophthora infestans [4]; [5]) was 40 (1575 ppm**).
With `CN(C)CCO` [N,N-dimethylethanolamine] the “Activity (y)” value (Plasmopara tabacina; in vivo) was 5, the “Activity (y)” value (Plasmopara viticola [3]; in vivo) was 25 and the “Activity (y)” value (Phytophthora infestans [1]; in vivo) was 30.
Acid Choline Phosphite [Compound 2] was tested, and the “Activity (y)” value (Phytophthora infestans [1]; [6]) was 65, the “Activity 500 ppm” value (Plasmopara viticola [2]) was 85 and the “Activity 1000 ppm” value (Plasmopara viticola [2]) was 95. The Activity (Phytophthora infestans [4]; [5]) was 65 (1575 ppm**) and the Activity (Phytophthora infestans [4]; 1575 ppm as equivalent phosphorous acid, […]) was 65.
Neutral Choline Phosphite [Compound 1] was tested, and the “Activity (y)” value (Phytophthora infestans [1]; [6]) was 65, the “Activity 500 ppm” value (Plasmopara viticola [2]) was 90 and the “Activity 1000 ppm” value (Plasmopara viticola [2]) was 100.
